Measurements published in ChEMBL document CHEMBL5331074, “Design and synthesis of new adamantyl derivatives as promising antiproliferative agents” (Eur J Med Chem, 2023).
The source made the active and inactive calls. The calls are words filed in the database; no cut-off is given here.

How the values were obtained:
Carbonic anhydrase 9 = Carbonic anhydrase 9 (Homo sapiens, UniProt Q16790)
Description: Inhibition of Carbonic anhydrase 9 (unknown origin) using p-nitrophenyl acetate as substrate preincubated for 10 mins followed by substrate addition and measured after 30 mins by microplate reader method

NCI-H23 = assay: Cytotoxicity against human NCI-H23 cells assessed as cell growth inhibition; format: functional, cell-based
NCI/ADR-RES = assay: Cytotoxicity against human NCI/ADR-RES cells assessed as cell growth inhibition; format: functional, cell-based
SK-OV-3 = assay: Cytotoxicity against human SK-OV-3 cells assessed as cell growth inhibition; format: functional, cell-based
NCI-H522 = assay: Cytotoxicity against human NCI-H522 cells assessed as cell growth inhibition; format: functional, cell-based
LOX IMVI = assay: Cytotoxicity against human LOX IMVI cells assessed as cell growth inhibition; format: functional, cell-based
UACC-62 = assay: Cytotoxicity against human UACC-62 cells assessed as cell growth inhibition; format: functional, cell-based
HT-29 [1] = assay: Cytotoxicity against human HT-29 assessed as mean growth inhibition; format: functional
KM12 = assay: Cytotoxicity against human KM12 cells assessed as cell growth inhibition; format: functional, cell-based
SR = assay: Cytotoxicity against human SR cells assessed as cell growth inhibition; format: functional, cell-based
786-0 = assay: Cytotoxicity against human 786-0 cells assessed as cell growth inhibition; format: functional, cell-based
HOP-92 = assay: Cytotoxicity against human HOP-92 cells assessed as cell growth inhibition; format: functional, cell-based
IGROV-1 = assay: Cytotoxicity against human IGROV-1 cells assessed as cell growth inhibition; format: functional, cell-based
HCC 2998 = assay: Cytotoxicity against human HCC 2998 cells assessed as cell growth inhibition; format: functional, cell-based
DU-145 = assay: Cytotoxicity against human DU-145 cells assessed as cell growth inhibition; format: functional, cell-based
U-251 = assay: Cytotoxicity against human U-251 cells assessed as cell growth inhibition; format: functional, cell-based
SF-295 = assay: Cytotoxicity against human SF-295 cells assessed as cell growth inhibition; format: functional, cell-based
A498 = assay: Cytotoxicity against human A498 cells assessed as cell growth inhibition; format: functional, cell-based
SK-MEL-28 = assay: Cytotoxicity against human SK-MEL-28 cells assessed as cell growth inhibition; format: functional, cell-based
Autotaxin = Autotaxin (Homo sapiens, UniProt Q13822); assay: Inhibition of human NPP2 expressed in COS-7 cells using pNP-TMP as substrate preincubated for 10 mins followed by substrate addition and measured after 35 mins by microplate reader analysis; format: cell-based
HCT-15 = assay: Cytotoxicity against human HCT-15 cells assessed as cell growth inhibition; format: functional, cell-based
PC-3 = assay: Cytotoxicity against human PC-3 cells assessed as cell growth inhibition; format: functional, cell-based
OVCAR-4 = assay: Cytotoxicity against human OVCAR-4 cells assessed as cell growth inhibition; format: functional, cell-based
HCT-116 = assay: Cytotoxicity against human HCT-116 cells assessed as cell growth inhibition; format: functional, cell-based
SK-MEL-5 = assay: Cytotoxicity against human SK-MEL-5 cells assessed as cell growth inhibition; format: functional, cell-based
MDA-MB-468 = assay: Cytotoxicity against human MDA-MB-468 cells assessed as cell growth inhibition; format: functional, cell-based
HL-60(TB) = assay: Cytotoxicity against human HL-60(TB) cells assessed as cell growth inhibition; format: functional, cell-based
Malme-3M = assay: Cytotoxicity against human Malme-3M cells assessed as cell growth inhibition; format: functional, cell-based
SNB-75 = assay: Cytotoxicity against human SNB-75 cells assessed as cell growth inhibition; format: functional, cell-based
ACHN = assay: Cytotoxicity against human ACHN cells assessed as cell growth inhibition; format: functional, cell-based
COLO 205 = assay: Cytotoxicity against human COLO 205 cells assessed as cell growth inhibition; format: functional, cell-based
TK-10 = assay: Cytotoxicity against human TK-10 cells assessed as cell growth inhibition; format: functional, cell-based
[2] = target: Ectonucleotide pyrophosphatase/phosphodiesterase family member 1 (Homo sapiens, UniProt P22413); assay: Inhibition of human NPP1 expressed in COS-7 cells using pNP-TMP as substrate preincubated for 10 mins followed by substrate addition and measured after 35 mins by microplate reader analysis; format: cell-based
Ectonucleotide pyrophosphatase/phosphodiesterase family member 1, sequence (P22413 whole entry): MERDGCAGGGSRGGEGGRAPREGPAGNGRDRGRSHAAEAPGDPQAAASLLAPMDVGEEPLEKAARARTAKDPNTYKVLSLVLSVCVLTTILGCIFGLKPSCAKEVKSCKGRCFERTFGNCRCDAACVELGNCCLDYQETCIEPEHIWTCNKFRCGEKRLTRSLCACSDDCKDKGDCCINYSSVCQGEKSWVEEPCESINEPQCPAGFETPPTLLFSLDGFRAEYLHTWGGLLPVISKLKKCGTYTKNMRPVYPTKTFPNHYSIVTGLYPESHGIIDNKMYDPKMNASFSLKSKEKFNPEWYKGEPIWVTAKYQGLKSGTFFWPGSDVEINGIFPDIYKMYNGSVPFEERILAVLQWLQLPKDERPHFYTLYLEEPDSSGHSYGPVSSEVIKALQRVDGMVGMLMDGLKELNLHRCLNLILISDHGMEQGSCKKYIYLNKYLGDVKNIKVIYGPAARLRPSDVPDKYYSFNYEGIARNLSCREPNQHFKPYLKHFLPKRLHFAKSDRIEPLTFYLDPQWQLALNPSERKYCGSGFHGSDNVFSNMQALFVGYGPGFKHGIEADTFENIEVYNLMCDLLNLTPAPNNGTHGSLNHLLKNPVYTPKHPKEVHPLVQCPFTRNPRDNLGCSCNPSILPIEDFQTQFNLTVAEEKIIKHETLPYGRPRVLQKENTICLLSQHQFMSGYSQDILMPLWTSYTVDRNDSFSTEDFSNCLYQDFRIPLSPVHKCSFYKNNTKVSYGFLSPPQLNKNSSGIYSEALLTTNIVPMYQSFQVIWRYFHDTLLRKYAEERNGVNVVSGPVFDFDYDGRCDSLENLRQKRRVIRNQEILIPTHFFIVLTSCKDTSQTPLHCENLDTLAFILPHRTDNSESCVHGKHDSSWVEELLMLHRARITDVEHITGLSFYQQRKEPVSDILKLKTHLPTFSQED

HT-29 [3] = assay: Cytotoxicity against human HT-29 assessed as cell growth inhibition; format: functional, cell-based
SF-539 = assay: Cytotoxicity against human SF-539 cells assessed as cell growth inhibition; format: functional, cell-based
SW-620 = assay: Cytotoxicity against human SW620 cells assessed as cell growth inhibition; format: functional, cell-based
[4] = target: Ectonucleotide pyrophosphatase/phosphodiesterase family member 3 (Homo sapiens, UniProt O14638); assay: Inhibition of human NPP3 expressed in COS-7 cells using pNP-TMP as substrate preincubated for 10 mins followed by substrate addition and measured after 35 mins by microplate reader analysis; format: cell-based
Ectonucleotide pyrophosphatase/phosphodiesterase family member 3, sequence (O14638 whole entry): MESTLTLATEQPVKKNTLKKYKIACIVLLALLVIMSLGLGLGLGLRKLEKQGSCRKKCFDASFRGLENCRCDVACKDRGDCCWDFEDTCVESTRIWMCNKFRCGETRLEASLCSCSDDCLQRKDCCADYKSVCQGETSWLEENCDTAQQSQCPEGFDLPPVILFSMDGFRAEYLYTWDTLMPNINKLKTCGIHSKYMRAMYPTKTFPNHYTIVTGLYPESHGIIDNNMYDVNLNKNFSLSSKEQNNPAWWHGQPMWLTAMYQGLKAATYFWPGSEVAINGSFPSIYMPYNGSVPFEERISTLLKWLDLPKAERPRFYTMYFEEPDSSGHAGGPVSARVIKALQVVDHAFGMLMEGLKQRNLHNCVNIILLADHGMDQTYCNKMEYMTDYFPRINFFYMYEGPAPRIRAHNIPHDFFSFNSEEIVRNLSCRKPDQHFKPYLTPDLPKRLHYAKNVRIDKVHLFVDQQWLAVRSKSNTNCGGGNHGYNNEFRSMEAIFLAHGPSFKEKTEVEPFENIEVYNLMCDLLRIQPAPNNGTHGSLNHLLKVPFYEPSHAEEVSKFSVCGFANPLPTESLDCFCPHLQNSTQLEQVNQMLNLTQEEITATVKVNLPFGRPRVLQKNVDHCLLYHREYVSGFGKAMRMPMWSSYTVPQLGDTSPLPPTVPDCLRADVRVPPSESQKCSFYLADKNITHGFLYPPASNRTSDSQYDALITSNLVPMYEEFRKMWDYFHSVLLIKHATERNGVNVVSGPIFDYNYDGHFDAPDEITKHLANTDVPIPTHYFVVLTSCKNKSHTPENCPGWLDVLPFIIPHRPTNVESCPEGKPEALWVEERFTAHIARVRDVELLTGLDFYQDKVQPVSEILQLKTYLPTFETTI

MDA-MB-435 = assay: Cytotoxicity against human MDA-MB-435 cells assessed as cell growth inhibition; format: functional, cell-based
BT-549 = assay: Cytotoxicity against human BT-549 cells assessed as cell growth inhibition; format: functional, cell-based
MDA-MB-231 = assay: Cytotoxicity against human MDA-MB-231 cells assessed as cell growth inhibition; format: functional, cell-based
UO-31 = assay: Cytotoxicity against human UO-31 cells assessed as cell growth inhibition; format: functional, cell-based
Hs-578T = assay: Cytotoxicity against human Hs-578T cells assessed as cell growth inhibition; format: functional, cell-based
NCI-H460 = assay: Cytotoxicity against human NCI-H460 cells assessed as cell growth inhibition; format: functional, cell-based
MCF7 = assay: Cytotoxicity against human MCF7 cells assessed as cell growth inhibition; format: functional, cell-based
SK-MEL-2 = assay: Cytotoxicity against human SK-MEL-2 cells assessed as cell growth inhibition; format: functional, cell-based
SNB-19 = assay: Cytotoxicity against human SNB-19 cells assessed as cell growth inhibition; format: functional, cell-based
[5] = Selectivity index, ratio of IC50 for cytotoxicity against human hTERT-HME1 cells to IC50 for cytotoxicity against human BT-549 cells
OVCAR-8 = assay: Cytotoxicity against human OVCAR-8 cells assessed as cell growth inhibition; format: functional, cell-based
RPMI-8226 = assay: Cytotoxicity against human RPMI-8226 cells assessed as cell growth inhibition; format: functional, cell-based
HOP-62 = assay: Cytotoxicity against human HOP-62 cells assessed as cell growth inhibition; format: functional, cell-based
M14 = assay: Cytotoxicity against human M14 cells assessed as cell growth inhibition; format: functional, cell-based
UACC-257 = assay: Cytotoxicity against human UACC-257 cells assessed as cell growth inhibition; format: functional, cell-based
NCI-H226 = assay: Cytotoxicity against human NCI-H226 cells assessed as cell growth inhibition; format: functional, cell-based
SF-268 = assay: Cytotoxicity against human SF-268 cells assessed as cell growth inhibition; format: functional, cell-based
T47D = assay: Cytotoxicity against human T47D cells assessed as cell growth inhibition; format: functional, cell-based
K562 = assay: Cytotoxicity against human K562 cells assessed as cell growth inhibition; format: functional, cell-based
[6] = Cytotoxicity against human hTERT-HME1 cells assessed as cell growth inhibition; format: toxicity, cell-based
A549 = assay: Cytotoxicity against human A549 cells assessed as cell growth inhibition; format: functional, cell-based
SN12C = assay: Cytotoxicity against human SN12C cells assessed as cell growth inhibition; format: functional, cell-based
OVCAR-5 = assay: Cytotoxicity against human OVCAR-5 cells assessed as cell growth inhibition; format: functional, cell-based
NCI-H322M = assay: Cytotoxicity against human NCI-H322M cells assessed as cell growth inhibition; format: functional, cell-based
HT-29 [7] = assay: Cytotoxicity against human HT-29 cells assessed as cell growth inhibition; format: functional, cell-based

SMILES: O=C(Nc1ccc(OS(=O)(=O)c2ccccc2)cc1)C12CC3CC(CC(C3)C1)C2
- IC50 (Carbonic anhydrase 9): 1.02 µM
- IC50 (NCI-H23): 6.68 µM
- IC50 (NCI/ADR-RES): 5.75 µM
- IC50 (SK-OV-3): > 100 µM
- IC50 (NCI-H522): 4.36 µM
- IC50 (LOX IMVI): 4.38 µM
- IC50 (UACC-62): 6.47 µM
- inhibition (INH) (HT-29 [1]): 85.4%
- IC50 (KM12): 2.1 µM
- IC50 (SR): 0.58 µM
- IC50 (786-0): 3.8 µM
- IC50 (HOP-92): 1.87 µM
- IC50 (IGROV-1): > 100 µM
- IC50 (HCC 2998): 5.48 µM
- IC50 (DU-145): > 100 µM
- IC50 (U-251): 4.81 µM
- IC50 (SF-295): 8.27 µM
- IC50 (A498): 2.04 µM
- IC50 (SK-MEL-28): > 100 µM
- IC50 (Autotaxin): 1.35 µM
- IC50 (HCT-15): 1 µM
- IC50 (PC-3): 2.9 µM
- IC50 (OVCAR-4): 8.38 µM
- IC50 (HCT-116): 2.5 µM
- IC50 (SK-MEL-5): 3.12 µM
- IC50 (MDA-MB-468): 3.8 µM
- IC50 (HL-60(TB)): 8.39 µM
- IC50 (Malme-3M): > 100 µM
- IC50 (SNB-75): 7.16 µM
- IC50 (ACHN): > 100 µM
- IC50 (COLO 205): 0.87 µM
- IC50 (TK-10): > 100 µM
- IC50 [2]: 1.36 µM
- inhibition (HT-29 [3]): Active
- IC50 (SF-539): 0.96 µM
- IC50 (SW-620): 1.97 µM
- IC50 [4]: 3 µM
- IC50 (MDA-MB-435): > 100 µM
- IC50 (BT-549): 3.24 µM
- IC50 (MDA-MB-231): 3.79 µM
- IC50 (UO-31): 18.7 µM
- IC50 (Hs-578T): 7.29 µM
- IC50 (NCI-H460): 6.1 µM
- IC50 (MCF7): 3.26 µM
- IC50 (SK-MEL-2): > 100 µM
- IC50 (SNB-19): > 100 µM
- Ratio IC50 [5]: 15.4
- IC50 (OVCAR-8): > 100 µM
- IC50 (RPMI-8226): 0.4 µM
- IC50 (HOP-62): > 100 µM
- IC50 (M14): 7.2 µM
- IC50 (UACC-257): 13.5 µM
- IC50 (NCI-H226): 27.7 µM
- IC50 (SF-268): > 100 µM
- IC50 (T47D): 3.57 µM
- IC50 (K562): 0.32 µM
- IC50 [6]: > 50 µM
- IC50 (A549): 6.9 µM
- IC50 (SN12C): > 100 µM
- IC50 (OVCAR-5): > 100 µM
- IC50 (NCI-H322M): > 100 µM
- IC50 (HT-29 [7]): 0.4 µM
